{
  "source": "patent US7524821B2",
  "about": "“Scaffolded maleimide clusters for multivalent peptide assembly” (priority 2002, dated 2009)",
  "key": {"[1]": {"assay": "Circular dichroism (CD) spectroscopy, α-helix content", "type": "physicochemical", "details": "based on [θ]222 and proposed formula, 50 mM phosphate buffer pH 7.4", "description": "FIG. 11. CD spectra of the MVP-1 and DP178. The spectra were recorded with 10 uM of DP178 and 2.5 uM of MVP-1 in a phosphate buffer (50 mM, pH 7.4) at 23° C.\nOne application of the scaffolds is to induce special conformations of peptides. The circular dichroism (CD) spectra of the synthetic multivalent gp41 peptide (MVP-1) and peptide DP178 were recorded and compared (FIG. 11). It was shown that the multivalent assembling has a significant impact on the peptide conformation, leading to a great increase of the α-helical content for the peptide. […]\nSimilarly, we measured the circular dichroism (CD) spectra of the cholic acid-based multivalent peptides (36a and 37b). […]\nThe UV absorbance was run on Beckman DU 640 spectrophotometer. CD's spectrums were measured on Jasco-810 (CD-ORD) spectropolarimeter using quartz cuvette of 1 mm path length. […]\nThe samples of tetravalent peptide 26, trivalent peptides 36a and 37b, template 3α, 7α, 12α-tri-(6-Amino-3-thia-hexy-oxyl)-24-hydroxyl-5β-cholane 32, and the single peptide DP178 were prepared in a concentration ranging from 2 to 18 μM in 50 mM phosphate buffer (pH 7.4). The exact concentration of each sample was detected by UV spectrometer just prior to CD measurement. […]"}, "[2]": {"assay": "Native gel filtration (aggregation)", "type": "physicochemical", "details": "PBS, pH 7.2, 0.5 mM", "from_the_text": "Accordingly, the tetravalent gp41 peptides 25 and 26, each of which contains 4 strands of the 36-mer HIV-1 gp41 peptide DP178 (T20) were synthesized (FIG. 7). […] In order to ligate the peptide to the maleimide cluster, a cysteine residue was introduced at the C-terminus of the peptide during solid phase peptide synthesis."}, "[3]": {"details": "aqueous buffer pH 7.0; cited from earlier work"}, "HIV-1": {"tested_on": "HIV-1", "details": "laboratory-adapted strains and primary isolates / different strains of HIV, cited from earlier work"}},
  "note": "Read-outs that look alike come from different tables or passages of the source.",
  "data": [
    {"substance": "enfuvirtide", "values": [
      {"measurement": "content of α-helix", "setting": "[1]", "result": 18, "unit": "%"},
      {"measurement": "aggregation under native gel filtration", "setting": "[2]", "result": "form aggregates"},
      {"measurement": "concentration at which monomer/tetramer equilibrium and other aggregation patterns occur", "setting": "[3]", "result": "above 20 μM"},
      {"measurement": "concentration at which peptide is monomeric", "setting": "[3]", "result": "below 10 μM"},
      {"measurement": "inhibition of HIV membrane fusion", "setting": "HIV-1", "result": "potent and broadly inhibitory activities"},
      {"measurement": "inhibition of HIV membrane fusion", "setting": "HIV-1; listed as T20", "result": "potently inhibit"}
    ]}
  ]
}
